# Assay results from patent US9115081B2, “Synthetic process for aminocyclohexyl ether compounds” (Cardiome Pharma Corp., priority 2004, dated 2015).
# System: sustained AF maintained during continuous vagal nerve stimulation
# Experiment: Canine vagal-AF model: termination of sustained AF by drug infused IV
# Type: in vivo, dog
# Details: for Effective doses for terminating AF: anesthetized mongrel dogs, IV over 5 min, cell format number of dogs-dose
# Experimental: Mongrel dogs of either sex weighing 15-49 kg are anesthetized with morphine (2 mg/kg im initially, followed by 0.5 mg/kg IV every 2 h) and α-chloralose (120 mg/kg IV followed by an infusion of 29.25 mg/kg/h; St.-Georges et al., 1997). Dogs are ventilated mechanically with room air supplemented with oxygen via an endotracheal tube at 20 to 25 breaths/minute with a tidal volume obtained from a nomogram. Arterial blood gases are measured and kept in the physiological range (SAO2>90%, pH 7.30-7.45). Catheters are inserted into the femoral artery for blood pressure recording and blood gas measurement, and into both femoral veins for drug administration and venous sampling. Catheters are kept patent with heparinized 0.9% saline solution. Body temperature is maintained at 37-40° C. with a heating blanket.
# The heart is exposed via a medial thoracotomy and a pericardial cradle is created. Three bipolar stainless steel, Teflon™-coated electrodes are inserted into the right atria for recording and stimulation, and one is inserted into the left atrial appendage for recording. A programmable stimulator (Digital Cardiovascular Instruments, Berkeley, Calif.) is used to stimulate the right atrium with 2 ms, twice diastolic threshold pulses. Two stainless steel, Teflon™-coated electrodes are inserted into the left ventricle, one for recording and the other for stimulation. […]
# Drug effects to terminate sustained AF maintained during continuous vagal nerve stimulation are assessed. […] The vagal stimulation voltage is adjusted under control conditions, and then readjusted after each treatment to maintain the same bradycardic effect. […]
# Diastolic threshold current is determined at a basic cycle length of 300 ms by increasing the current 0.1 mA incrementally until stable capture is obtained. […] Atrial and ventricular ERP is measured with the extrastimulus method, over a range of S1S2 intervals at a basic cycle length of 300 ms. […] Diastolic threshold and ERP are determined in duplicate and averaged to give a single value. […]
structure (smiles),measurement,setting,value
O=C(NCC1CCCCN1)c1cc(OCC(F)(F)F)ccc1OCC(F)(F)F (stereo not drawn) [Flecainide],Effective doses for terminating AF,AF terminated at this dose in 1 dog,10 µmol/kg
same,Effective doses for terminating AF,AF terminated at this dose in 4 dogs,2.5 µmol/kg
same,Effectiveness as a control in terminating vagal AF,"control in the present study, compared with earlier reports",comparable to that previously reported
